What was measured:
Fusarium oxysporum = assay: Inhibition halo for BLAD with and without EDTA against Fusarium oxysporum on Potato Dextrose Agar; assay type: cell-based
Experimental: Inhibition Halo Data for BLAD with and without EDTA Against Fusarium oxysporum on Potato Dextrose Agar (PDA) at 1.2% w/v of Agar (Incubation 3 Days at 25° C.): […]

Streptomyces griseus = assay: MIC of BLAD and EDTA against Streptomyces griseus; assay type: cell-based; conditions: EDTA alone
P. aeruginosa = assay: Bacteriostatic/bactericidal activity of BLAD, EDTA and their combination against P. aeruginosa; assay type: cell-based, Pseudomonas aeruginosa; conditions: EDTA at 1 mg/ml alone
Botrytis cinerea = assay: Inhibition halo for BLAD with and without EDTA against Botrytis cinerea on Potato Dextrose Agar; assay type: cell-based
Experimental: Inhibition Halo Data for BLAD with and without EDTA Against Botrytis cinerea on Potato Dextrose Agar (PDA) at 1.2% w/v of Agar (Incubation 3 Days at 25° C.): […]

Erwinia pirsicina = assay: MIC of BLAD and EDTA against Erwinia pirsicina; assay type: cell-based; conditions: EDTA alone
[1] = EDTA 50 mM alone, PDA 1.2% w/v agar, 3 days at 25° C.
[2] = EDTA 50 mM alone, individual replicates, PDA 1.2% w/v agar, 3 days at 25° C.

- MIC (Streptomyces griseus): 16 mM
- MIC (Erwinia pirsicina): 15 mM
SMILES: O=C(O)CN(CCN(CC(=O)O)CC(=O)O)CC(=O)O [EDTA, ethylenediaminetetraacetic acid]
- Average inhibition halo diameter (Fusarium oxysporum; [1]): 0 mm
- Inhibition halo diameter (Fusarium oxysporum; [2]): 0 mm
- growth inhibition (in words) (Fusarium oxysporum; EDTA alone at 50 mM): No growth inhibition
- effect on growth (P. aeruginosa): inhibits growth
- Average inhibition halo diameter (Botrytis cinerea; [1]): 0 mm
- Inhibition halo diameter (Botrytis cinerea; [2]): 0 mm
- growth inhibition (in words) (Botrytis cinerea; EDTA alone at 50 mM): No growth inhibition
